Here are results for four compounds from patent US20250057740A1, “Stable Stannous Oral Care Product” (Colgate-Palmolive Company, priority 2018, published 2025).

A short description of data set [1]: Stability of stannous ions over 35 days at 60° C. (FIG. 3).
Experimental: Stability of stannous ions is assessed over a period of 35 days.
For data set [2] the following is noted: aqueous Sn (II) with the named additive, 35 days. How it is done: Stability of Sn (II) in aqueous solutions, and the ability of various additives to affect this stability, is assessed.
The conditions of data set [3]: in water; cited from earlier work.

For `O=P([O-])([O-])OP(=O)([O-])[O-].[Na+].[Na+].[Na+].[Na+]` [TSPP, tetrasodium pyrophosphate], in data set [1] (SnF2 in the presence of the named additive), the “oxidative stability of stannous” value is listed as “no oxidative stability is observed”.
As for `O.O.O.O.O=P([O-])([O-])[O-].O=P([O-])([O-])[O-].[Zn+2].[Zn+2].[Zn+2]` [Zinc phosphate, zinc phosphate], the “prevention of the stannous-to-stannic oxidation” value in data set [2] is reported as “positive impact”. In addition, the Ksp in data set [3] was ~10^−35.
For the compound `O=P(O)(O)O` [phosphoric acid], the stannous oxidized in data set [1] (stannous fluoride in the presence of the named additive) was 8-9%.
With `[F][Sn][F]` [stannous fluoride, reference compound], in data set [1] (stannous fluoride alone), the stannous oxidized is recorded as ~80%.
